Laboratory results published in US8173428B2, “LNA oligonucleotides and the treatment of cancer” (Santaris Pharma A/S, priority 2004, dated 2012).
Oligonucleotides are written 5' to 3', each unit as a sugar letter and its base; * is a phosphorothioate linkage, no mark a phosphodiester; rarer units and linkages stand in square brackets, end groups in braces. Plain capitals give the bases only. l = locked nucleic acid (LNA); [5mC] = 5-methylcytosine; d = 2'-deoxy (DNA)

Experiments:
HeLa cells = experiment: Annexin V-FITC/PI flow cytometry analysis; type: cell-based, human; settings: 5 nM or 25 nM
Experimental: Culturing of cells: 15PC3 was cultured in DMEM (Sigma) containing 10% fetal bovine serum, Glutamax I and gentamicin at 37° C., 95% humidity and 5% CO2. The cervical carcinoma cell line HeLa were cultured in MEM (Sigma) containing 10% fetal bovine serum, Glutamax I and gentamicin at 37° C., 95% humidity and 5% CO2. When reaching 60-70% confluency, the cells were transfected using Lipofectamine 2000 (5 μg/ml).
0.4×10^6 HeLa cells were seeded in T25 flasks one day prior to transfection. On the day of transfection, the cells were washed once in 37° C. OptiMEM followed by addition of 2.8 ml OptiMEM containing 5 μg/ml Lipofectamine-2000 (In vitrogen). Cells were incubated for 7 min before adding 700 μl oligonucleotides diluted in OptiMEM to a final concentration of 5 nM or 25 nM, Mock transfected cells served as control. After 4 hours of treatment cells were washed in OptiMEM and 3 ml culture medium was added. Following oligonucleotide treatment cells were allowed to recover for 48 hours before they were harvested by scraping and washed twice in PBS. 0.2×10^6 cells were incubated with 5 μl Annexin V-FITC and 10 μl propidium iodide (PI-10 mg/ml) and incubated for 15 min at room temperature in the dark. […] Moreover, TRAIL (Apo2L) induced HeLA cells (0.5 μg/ml) were used as positive control. (See FIG. 4)

Survivin mRNA = experiment: Tumour analysis: Survivin mRNA after intratumoural injection; type: in vivo, Balb/cA-nu mice; settings: 25 mg/kg intratumoral, 6 times over 2 weeks, sampling 24 hours after last dose, versus saline
Experimental: Model: PC-3 human prostate cancer cells (ECACC) are mixed with Matrigel and injected s.c. into both flanks of female Balb/cA-nu mice on Day 0.
Administration: Oligonucleotides i.p. (see FIG. 8) or intratumoural (see FIG. 9), Taxol i.v., all according to schedule
Total RNA isolation: Approximately 20 mg tumour tissue was homogenized in 400 μl RTL buffer (Qiagen) supplemented with 1% mercaptoethanol. Total RNA was isolated using RNeasy mini kit (Qiagen) according to the manufacture's instructions.
cDNA synthesis: First strand synthesis was performed using OmniScript Reverse Transcriptase kit according to the manufacturer's instructions (Qiagen). […] Protein levels were analysed on individual tumours by western blotting (see FIG. 9). Real time PCR analysis: To determine the relative Survivin mRNA level treated and untreated tumours, the generated cDNA was used in quantitative PCR analysis using an iCycler from BioRad. The cDNA was diluted 5-fold and 8 μl was mixed with 52 μl Taqman probe master mix containing 30 μl Platinum Quantitative PCR SuperMix UDG 2×PCR master mix (Invitrogen), 3 μl 20× Taqman probe and primer mix (forward primer: 5′-[…]-3′ (SEQ ID NO. 29), final 0.9 μM. Reverse primer: 5′-[…]-3′ (SEQ ID NO. 30), final 0.6 μM and taqman probe: FAM-5′-[…]-TAMRA-3′ (SEQ ID NO. 31), final 0.1 μM) and 19 μl H2O. […]

With “5′-^MeCsTs^MeCsAsastscscsastsgsgs^MeCsAsGsc-3′ (l[5mC]*lT*l[5mC]*lA*dA*dT*dC*dC*dA*dT*dG*dG*l[5mC]*lA*lG*dC) [SEQ ID NO. 2]” the “Induction of early and late apoptosis (Annexin V-FITC/PI staining)” value (HeLa cells) was “dose dependent induction of early and late apoptosis” and the “Survivin mRNA level in tumours” value (Survivin mRNA) was “reduced levels of both mRNA and Survivin protein”.
